How the values were obtained:
[1] = target: MAPK14 (UniProt Q16539)
[2] = target: MAPK14 (UniProt Q16539); remark: listed apart in the source
[3] = target: MAPK14 (UniProt Q16539); remark: listed apart in the source

MAPK14, sequence (Q16539 whole entry, looked up): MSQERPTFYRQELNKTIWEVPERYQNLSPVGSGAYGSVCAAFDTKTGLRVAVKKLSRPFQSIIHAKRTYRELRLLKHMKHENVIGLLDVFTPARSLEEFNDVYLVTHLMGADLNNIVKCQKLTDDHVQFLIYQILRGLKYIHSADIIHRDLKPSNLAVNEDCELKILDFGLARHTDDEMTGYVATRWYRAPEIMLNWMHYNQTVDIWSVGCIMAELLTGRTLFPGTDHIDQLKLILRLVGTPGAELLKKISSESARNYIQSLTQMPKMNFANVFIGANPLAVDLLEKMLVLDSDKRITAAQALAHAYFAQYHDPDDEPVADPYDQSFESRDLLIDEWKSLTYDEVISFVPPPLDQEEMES

| Compound | IC50 [1] | IC50 [2] | IC50 [3] |
| --- | --- | --- | --- |
| Fc1ccc(Oc2nccc(-c3c(-c4ccc(F)cc4)ncn3CCCN3CCOCC3)n2)cc1 |  | < 50 µM | < 50 µM |
| Cc1ccc(Oc2cc(-c3c(-c4ccc(F)cc4)ncn3C3CCNCC3)ccn2)cc1 | < 50 µM |  |  |
| Fc1ccc(-c2ncn(C3CCNCC3)c2-c2ccnc(Oc3ccc(OCc4ccccc4)cc3)c2)cc1 | < 50 µM |  |  |
| COc1ccc(Oc2cc(-c3c(-c4ccc(F)cc4)ncn3C3CCNCC3)ccn2)cc1 | < 50 µM | < 50 µM | < 50 µM |
| Fc1ccc(-c2ncn(C3CCNCC3)c2-c2ccnc(Sc3ccccc3)c2)cc1 | < 50 µM | < 50 µM |  |
| Fc1ccc(Oc2cc(-c3c(-c4ccc(F)cc4)ncn3C3CCNCC3)ccn2)cc1 | < 50 µM | < 50 µM | < 50 µM |

Further lines, results first:

| IC50 [1] | IC50 [2] | IC50 [3] | Compound |
| --- | --- | --- | --- |
| < 50 µM | < 50 µM | < 50 µM | Cn1nnnc1Sc1cc(-c2c(-c3ccc(F)cc3)ncn2C2CCNCC2)ccn1 |
| < 50 µM |  |  | Fc1ccc(-c2ncn(C3CCNCC3)c2-c2ccnc(Oc3ccc(Cl)cc3)c2)cc1 |
| < 50 µM |  | < 50 µM | Fc1ccc(-c2ncn(CCCN3CCOCC3)c2-c2ccnc(Oc3ccccc3)n2)cc1 |
| < 50 µM | < 50 µM | < 50 µM | Fc1ccc(-c2ncn(C3CCNCC3)c2-c2ccnc(Oc3ccccc3)c2)cc1 |

Source: the Kinase Knowledgebase extract (Sharma et al. 2016)
